Laboratory results from paper PMC6345779, “Hypoculoside, a sphingoid base-like compound from Acremonium disrupts the membrane integrity of yeast cells” (Scientific Reports, 2019).

System: Saccharomyces cerevisiae cells
Assay: Recovery of yeast cells on compound-free YPD agar after treatment (cytocidal vs cytostatic)
Format: cell-based
Conditions: 21 µM for 24 h, then transfer to hypoculoside-free YPD agar plates
Method: We evaluated the potency of hypoculoside by examining its effect on the growth of Candida albicans strain (SC5314) using the Clinical and Laboratory Standards Institute (CLSI) guidelines. We used the well-known antifungal amphotericin B as a positive control. We exposed logarithmically growing Candida albicans cells to hypoculoside and amphotericin B at various concentrations and monitored the growth by recording the OD600 nm after 24 hours. […] We also tested the effect of hypoculoside on the growth of the Saccharomyces cerevisiae strain (BY4743). […] To test whether hypoculoside has cytocidal or cytostatic activity, we examined the ability of Saccharomyces cerevisiae cells to recover following treatment with either hypoculoside (21 µM) or DMSO for 24 h.
Legends for Supplementary figures and tables
Figure S1 Analysis of hypoculoside by MS/MS
Collision-Induced dissociation (CID) MS/MS fragmentation spectra of hypoculoside (8) generated at energies of 10 eV, 20 eV and 40 eV are depicted in panels A, B and C […]
Figure S2 Hypoculoside has antifungal, antibacterial and mammalian cytotoxic […]
B. Saccharomyces cerevisiae cultures in duplicate were treated with hypoculoside at the indicated concentrations in YPD medium at 30 °C for 24 hours. Growth of the yeast cultures as measured by OD600 nm is plotted against hypoculoside concentration. […]

For `CC(N)C(O)CCCCCCCCCCCCCCCCCCC(O)C(C)OC1OC(CO)C(O)C(O)C1O` (stereo not shown) [hypoculoside, Hypoculoside], the “cytocidal or cytostatic activity (ability to recover following treatment)” value was “cytocidal activity”.
